This note sets out measurements from patent US20150225369A1, “DDR2 INHIBITORS FOR THE TREATMENT OF OSTEOARTHRITIS” (Merck Patent GmbH, priority 2012, published 2015).

Like-named read-outs stand apart in the source and are kept apart here.

Experiment [1] has as its target T1, His-tagged human recombinant DDR-2 kinase domain (His-TEV-DDR2 467-855 aa) (Homo sapiens, UniProt Q16832).
T1 construct: His-TEV-DDR2 467-855 aa
T1 sequence (Q16832 467-855): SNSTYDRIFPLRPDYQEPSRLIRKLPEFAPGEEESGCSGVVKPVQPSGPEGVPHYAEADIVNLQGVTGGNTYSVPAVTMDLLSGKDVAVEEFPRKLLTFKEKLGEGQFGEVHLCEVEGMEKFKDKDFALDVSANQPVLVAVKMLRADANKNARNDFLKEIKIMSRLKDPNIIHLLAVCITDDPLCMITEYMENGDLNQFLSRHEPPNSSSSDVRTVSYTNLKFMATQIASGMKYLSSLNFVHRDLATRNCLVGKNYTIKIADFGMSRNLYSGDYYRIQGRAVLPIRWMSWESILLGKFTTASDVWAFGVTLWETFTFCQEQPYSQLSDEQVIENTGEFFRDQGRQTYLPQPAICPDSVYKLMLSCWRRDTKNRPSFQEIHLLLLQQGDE
Briefly: Autophosphorylation assay for biochemical activity testing of DDR2 (HTRF). In short, it runs like this:
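Phospho-tyrosine was detected by HTRF between XL665 anti-6His and cryptate anti-phosphotyrosine PT66 antibodies, using the emission ratio. Inhibition was referenced to the inhibitor-free reaction.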
(In TR-FRET formats the signal depends on donor and acceptor labels being close together.)

Experiment [2] deals with proMMP13 production by SW1353 cells. Nature of the experiment: Production of MMP13 (proMMP13 ELISA) by SW1353 cells upon stimulation with collagen type II. The experiment is classed as cell-based. Particulars: Homo sapiens, SW1353, 72 h, read-out: IC50 [pro-MMP13]. As to the method: The binding of Collagen type II to the DDR2 receptor of the SW1353 cells initiate a signalling cascade resulting in the increase of MMP13 expression. MMP13 is released in the culture medium in its pro-form, the proMMP13 which can be measured with an ELISA.
DDR2 inhibitors are evaluated for their ability to block this signalling cascade and therefore proMMP13 production upon collagen stimulation.
SW1353 cells (ATCC, HTB-94), conserved in liquid nitrogen, are thawed and cultivated at 1.6.10^6 cells in a T75 in RPMI1640 supplemented with 2 mM Glutamin, 1 mM Na-Pyruvate, 10% FCS, at 37° C., 5% CO2 for three days. SW1353 cells are then harvested with trypsin/EDTA and resuspended in RPMI1640 supplemented with 2 mM Glutamin, 1 mM Na-Pyruvate, 25 mM HEPES and 0.5% FCS (assay medium) and inoculated in a 96 well plate at 30 000 cells/well in 100 μL of the assay medium and further incubated 24 hours at 37°, 5% CO2 to enable cell adhesion. For stimulation of the DDR2 receptor, 50 μL of a collagen type II solution 160 μg/mL (final concentration in the well is 40 μg/mL) will be added in each well as well as 50 μL of the different dilutions of the inhibitors (MSCs) from 0.003 μM to 10 μM (final concentration in the plate). Each condition is performed in four-plicates. After three additional days of culture, the supernatant will be harvested for proMMP13 measurement.
The Different Controls Present on Each Plate are Composed of Assay Medium with: Positive control (with the reference compound): 40 μg/mL Collagen type II, 0.03 μM Dasatinib (reference compound) in 0.1% DMSO Negative control (no inhibition): 40 μg/mL Collagen type II and 0.1% DMSO Medium control (no stimulation): 0.005% Acetic acid and 0.1% DMSO All wells contains 0.1% DMSO and 0.005% acetic acid.
The solutions needed are: • Collagen type II is diluted at 2 mg/mL in 0.25% acetic acid. This stock solution can be stored at 4° C. for a week and is diluted 1/12.5 in the assay medium (to obtain 160 μg/mL in 0.02% acetic acid) before being used in the assay. • MSCs from 0.012 to 40 μM in assay medium with 0.4% DMSO (they are then further diluted ¼ in the assay plate) • Dasatinib 0.12 μM in assay medium with 0.4% DMSO (it is then further diluted ¼ in the assay plate) • Acetic acid 0.02% in assay medium (control).
The harvested supernatants are either directly used or stored at −20° C. until use. ProMMP13 is measured with a commercial ELISA kit, according the recommendation of the manufacturer (see Annex). Briefly, 50 μL of each samples are used undiluted and the standard curve is realised in the assay medium. At the end of the assay the ELISA plate is read on a Paradigm MTP-Reader (Beckman Coulter) at 540 (reference wavelength) and 450 nm. All the absorbance values obtained at 450 nm are corrected with the absorbance at 540 nm and a ‘Four Parameter Fit’ is used to establish the standard curve. From the standard curve the concentrations of proMMP13 in all the samples are calculated. All the calculations are realised by the Paradigm software.
The data reported in the database are the % effect of the compounds at the two highest concentrations (10 and 3 μM) as well as the IC50.
% effect at the two highest concentrations is calculated according to the formula: […]
The IC50s are calculated with the software Graph Pad Prism (see tables in Example 1).
In general terms: ELISA stands for enzyme-linked immunosorbent assay.

The subject of experiment [3] is CAR-induced swelling and thermal hyperalgesia. Nature of the experiment: Anti-hyperalgesic effect in animals (carrageenan injected into rat knee joint; swelling, Hargreaves test). The class given is in vivo. To be noted: intra-articular administration 30 minutes before CAR, TAC 10 μg/joint. As to the method:
In order to induce an inflammation reaction, a carrageenan solution (CAR, 1%, 50 μl) was injected intra-articularly on one side into a rat knee joint. The uninjected side was used for control purposes. Six animals per group were used. The […] was determined by means of a micrometer screw (medial-lateral on the knee joint), and the thermal hyperalgesia was determined by means of a directed infrared light source by the Hargreaves method (Hargreaves et al., 1988) on the sole of the foot. Since the site of inflammation (knee joint) is different from the site of measurement (paw sole), use is made here of the term secondary thermal hyperalgesia, the mechanism of which is of importance for the discovery of effective analgesics.
Experimental description of thermal hyperalgesia (Hargreaves test): the experimental animal is placed in a plastic chamber on a quartz sheet. Before testing, the experimental animal is firstly given about 5-15 minutes time to familiarise itself with the environment. […] Light reflected by the paw is recorded as long as the experimental animal sits still. Withdrawal of the paw interrupts this reflection, after which the infrared light source is switched off and the time from switching on to switching off is recorded. […]

The target of experiment [4] is T2, HEK293 transfected with human DDR2 (Homo sapiens, UniProt Q16832).
T2 construct: expressed in transfected cells; host or cells: HEK293 (PLT460F_(DDR2)-P7-1)
T2 sequence (Q16832 22-855): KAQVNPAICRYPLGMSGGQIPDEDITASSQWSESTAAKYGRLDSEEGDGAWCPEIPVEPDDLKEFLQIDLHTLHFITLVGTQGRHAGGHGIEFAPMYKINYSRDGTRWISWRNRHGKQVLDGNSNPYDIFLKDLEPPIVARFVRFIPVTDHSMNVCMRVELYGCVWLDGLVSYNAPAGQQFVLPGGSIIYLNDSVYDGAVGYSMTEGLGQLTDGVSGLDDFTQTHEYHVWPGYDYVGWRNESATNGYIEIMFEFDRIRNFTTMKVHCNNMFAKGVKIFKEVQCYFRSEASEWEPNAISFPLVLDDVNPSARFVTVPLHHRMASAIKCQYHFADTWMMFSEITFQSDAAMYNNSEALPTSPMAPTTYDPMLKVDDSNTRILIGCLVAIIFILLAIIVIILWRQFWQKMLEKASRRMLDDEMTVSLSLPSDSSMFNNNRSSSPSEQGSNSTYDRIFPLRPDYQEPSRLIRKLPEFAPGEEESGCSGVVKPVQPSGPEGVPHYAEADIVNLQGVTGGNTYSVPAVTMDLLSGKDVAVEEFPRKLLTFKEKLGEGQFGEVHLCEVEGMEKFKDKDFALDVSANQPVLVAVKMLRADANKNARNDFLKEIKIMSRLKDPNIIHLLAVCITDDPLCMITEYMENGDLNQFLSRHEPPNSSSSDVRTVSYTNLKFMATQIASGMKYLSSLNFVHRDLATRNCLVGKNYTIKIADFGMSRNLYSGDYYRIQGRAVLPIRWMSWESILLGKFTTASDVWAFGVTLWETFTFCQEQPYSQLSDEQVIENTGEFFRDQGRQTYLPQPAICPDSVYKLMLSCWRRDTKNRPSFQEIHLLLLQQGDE
Nature of the experiment: Phospho-DDR2 cellular assay (collagen II induced DDR2 phosphorylation, ELISA). The class given is cell-based. To be noted: read-out: IC50 [p-DDR2]. In short, it runs like this: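 Cells seeded 48 h in 10% FBS, serum-starved 8 h, then given compound (5% DMSO) with 50 μg/ml chicken collagen II for 16 h at 37 °C. Lysates captured on anti-DDR2 antibody plates; phospho-DDR2 detected with HRP anti-phosphotyrosine antibody by chemiluminescence.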

Setting [5] is: 4 nM DDR2 kinase domain, 150 μM ATP, 150 min at 22° C.

For `CNC(=O)c1cc(Oc2ccc(CNC(=O)Nc3cc(Cl)cnc3Cl)cc2)ccn1` [compound 8], the figures for the IC50 in experiment [1] (setting [5]) and in experiment [2] were 130 nM and 278 nM, respectively.
On to `C[C@]12C=CC(=O)C=C1CC[C@H]1[C@@H]3C[C@@H](O)[C@](O)(C(=O)CO)[C@@]3(C)C[C@H](O)[C@@]12F` [TAC, Triamcinolone], for which, in experiment [3], the CAR-induced swelling result is “capable of reducing the CAR-induced swelling”.
`CNCCOc1cc(Cl)c(C)cc1NC(=O)NCc1ccc(Oc2ccnc(C(=O)NC)c2)c(C)c1` [compound 141, 4-(4-{3-[4-Chloro-5-methyl-2-(2-methylamino-ethoxy)-phenyl]-ureidomethyl}-2-methyl-phenoxy)-pyridine-2-carboxylic acid methylamide]: the concentration for half-maximal inhibition (IC50) was 43 nM in experiment [1] (biochemical DDR2 autophosphorylation) and 25 nM in experiment [4] (cellular phospho-DDR2).
Regarding `CNC(=O)c1cc(Oc2ccc(COC(=O)Nc3ccc(Cl)c(C(F)(F)F)c3)cc2)ccn1` [compound 6], the IC50 in experiment [1] (setting [5]) was determined as 420 nM; in experiment [4] (HEK293 transfected with human DDR2, 50 μg/ml chicken collagen II, 16 h), 270 nM.

A word on the IC50: it is the concentration at which inhibition is half-maximal.
